# “And” between values parts separate entries of the source, which are not always exact repeats. Equal values may be shown once. Read-outs that look alike come from different tables or passages of the source.
# Experiments:
# [1] = test system: Staphylococcus aureus efflux mutants and clinical strains
# [2] = test system: HaCaT keratinocytes cells; experiment: In-vitro cytotoxicity test, Neutral Red uptake; type: cell-based, Human
# Procedure: (§1) Method: The in-vitro cytotoxicity test assessed cell viability based on Neutral Red uptake, a dye that accumulates in lysosomes and decreases in response to membrane damage. HaCaT keratinocytes were cultured in DMEM with 10% calf serum and incubated at 37°C, 5% CO₂. Cells were seeded in 96-well plates, treated with eight concentrations of the 5a4, and incubated for 24 hours. After washing, cells were exposed to Neutral Red medium for 3 hours, followed by washing and destaining. Optical density (OD540) was measured using a fluorescence reader, and IC50 values were calculated using Phototox Version 2.0, comparing treated wells to untreated controls.^[10]
# [3] = In-vitro cytotoxicity test, Neutral Red uptake; type: cell-based, Human; settings: human, HaCaT keratinocytes, 24 hours, read-out: Cell viability (% as compared to the negative control), replicates
# Procedure: as §1
# [4] = test system: SA 1199‐B (norA overexpressing); experiment: microbe, parasite or virus in culture; type: cell-based, Staphylococcus aureus; settings: from Table 1
smiles,measurement,setting,value
CCCCNc1ccc2nc3cc(NCCOC)c(N)cc3[n+](CCC)c2c1 [5a4],Efflux detection method 5a4,[1]; strain BIOS-V62,Negative
same,Efflux detection method 5a4,[1]; strain BIOS-V74,Negative
same,Efflux detection method 5a4,[1]; strain BIOS-V75,Negative
same,Efflux detection method 5a4,[1]; strain BIOS-V85,Negative
same,Efflux detection method 5a4,[1]; strain BIOS-V118,Negative
same,Efflux detection method 5a4,[1]; strain BIOS-V128,Negative
same,Efflux detection method 5a4,[1]; strain BIOS-V147,Negative
same,Efflux detection method 5a4,[1]; strain BIOS-V151,Negative
same,Efflux detection method 5a4,[1]; strain BIOS-V156,Negative
same,Efflux detection method 5a4,[1]; strain BIOS-V157,Negative
same,Efflux detection method 5a4,[1]; strain BIOS-V158,Negative
same,Efflux detection method 5a4,[1]; strain BIOS-V203,Negative
same,Efflux detection method 5a4,[1]; strain BIOS-V245,Negative
same,Efflux detection method 5a4,[1]; strain BIOS-V250,Negative
same,Efflux detection method 5a4,[1]; strain BIOS-V257,Negative
same,Efflux detection method 5a4,[1]; strain BIOS-V279,Negative
same,Efflux detection method 5a4,[1]; strain BIOS-V295,Negative
same,Efflux detection method 5a4,[1]; strain SA-1199,Negative
same,Efflux detection method 5a4,[1]; strain SA-1199B,Positive
same,Efflux detection method 5a4,[1]; strain SA-K1712,Negative
same,Efflux detection method 5a4,[1]; strain SA-K1748,Positive
same,Efflux detection method 5a4,[1]; strain SA-K1758,Negative
same,Efflux detection method 5a4,[1]; strain SM 1,Positive
same,Efflux detection method 5a4,[1]; strain SM 2,Negative
same,Efflux detection method 5a4,[1]; strain SM 3,Negative
same,Efflux detection method 5a4,[1]; strain SM 4,Negative
same,Efflux detection method 5a4,[1]; strain SM 5,Negative
same,Efflux detection method 5a4,[1]; strain SM 6,Negative
same,Efflux detection method 5a4,[1]; strain SM 7,Negative
same,Efflux detection method 5a4,[1]; strain SM 8,Negative
same,cytotoxicity on HaCaT (in words),[2],dose‐dependent cytotoxicity
same,"Cell viability (% as compared to the negative control), replicates","[2]; 0.00025 µg/ml, 24 hours",98.73% and 100.16% and 98.52%
same,"Cell viability (% as compared to the negative control), replicates","[2]; 0.0005 µg/ml, 24 hours",98.86% and 96.05%
same,"Cell viability (% as compared to the negative control), replicates","[2]; 0.001 µg/ml, 24 hours",86.83% and 87.15%
same,"Cell viability (% as compared to the negative control), replicates","[2]; 0.025 µg/ml, 24 hours",80.96% and 90.16%
same,"Cell viability (% as compared to the negative control), replicates","[2]; 0.05 µg/ml, 24 hours",71.87% and 67.22%
same,"Cell viability (% as compared to the negative control), replicates","[2]; 0.1 µg/ml, 24 hours",60.91% and 61.94%
same,"Cell viability (% as compared to the negative control), replicates","[2]; 0.25 µg/ml, 24 hours",43.67% and 45.37%
same,"Cell viability (% as compared to the negative control), replicates","[2]; 0.5 µg/ml, 24 hours",36.42% and 39.37%
same,"Cell viability (% as compared to the negative control), replicates","[2]; 1 µg/ml, 24 hours",8.29% and 13.84%
same,"Cell viability (% as compared to the negative control), replicates","[2]; 2.5 µg/ml, 24 hours",7.17% and 8.13%
same,IC50,"[2]; Homo sapiens, HaCaT, Neutral Red uptake, 24 hours, read-out: IC50 (HaCaT cell viability)",0.1 to 0.25 µg/mL
same,"viability at 24 h, 0.00025 µg/ml",[3]; 0.00025 µg/ml,> 96%
same,"viability at 24 h, 0.0005 µg/ml",[3]; 0.0005 µg/ml,98.9%
same,"viability at 24 h, 0.001 µg/ml",[3]; 0.001 µg/ml,87.3%
same,"viability at 24 h, 0.025 µg/ml",[3]; 0.025 µg/ml,80%
same,"viability at 24 h, 0.05 µg/ml",[3]; 0.05 µg/ml,66.6%
same,"viability at 24 h, 0.1 µg/ml",[3]; 0.1 µg/ml,57.8%
same,"viability at 24 h, 0.25 µg/ml",[3]; 0.25 µg/ml,43.4%
same,"viability at 24 h, 0.5 µg/ml",[3]; 0.5 µg/ml,37.3%
same,"viability at 24 h, 1 µg/ml",[3]; 1 µg/ml,11.6%
same,"viability at 24 h, 2.5 µg/ml",[3]; 2.5 µg/ml,~7.91%
same,"MIC difference between NorA wild‐type, overexpressing and deleted mutants",[4],fourfold or greater difference

# Reference: PMC12023841, “Unlocking the Gates: A Novel Diagnostic Molecule for Quantifying Efflux Levels in Gram‐Positive Bacteria” (Advanced Healthcare Materials, 2025)
